According to ChEMBL document CHEMBL2384905, “Therapeutic agents triggering nonapoptotic cancer cell death” (J Med Chem, 2013):

How the values were obtained:
Format in all cases: functional, Homo sapiens, Cancer cell lines
[1] = Antitumor activity against lung cancer cells in lung cancer patient assessed as tumor growth inhibition relative to control
[2] = Antitumor activity against lung cancer cells in lung cancer patient assessed as survival rate relative to control
[3] = Antitumor activity against lung cancer cells in lung cancer patient assessed as remission rate relative to control

For `CC(C)=CC[C@@H](O)C1=CC(=O)c2c(O)ccc(O)c2C1=O` [SHIKONIN], the TGI [1] was 63%, the Survival [2] was 47% and the Activity [3] was 37%.
